Measurements: ChEMBL document CHEMBL4507268 (2021)

What was measured:
[1] = biological target: Tyrosine-protein kinase BTK (Homo sapiens) (UniProt Q06187); conditions: Compound concentration 1.0 uM
[2] = biological target: Alpha-2B adrenergic receptor (Homo sapiens) (UniProt P18089); conditions: Compound concentration 10.0 uM
[3] = biological target: Casein kinase II subunit alpha' (Homo sapiens) (UniProt P19784); conditions: Compound concentration 1.0 uM
[4] = biological target: Protein-tyrosine kinase 6 (Homo sapiens) (UniProt Q13882); conditions: Compound concentration 1.0 uM
Protein-tyrosine kinase 6 (Homo sapiens), sequence (Q13882 whole entry, looked up): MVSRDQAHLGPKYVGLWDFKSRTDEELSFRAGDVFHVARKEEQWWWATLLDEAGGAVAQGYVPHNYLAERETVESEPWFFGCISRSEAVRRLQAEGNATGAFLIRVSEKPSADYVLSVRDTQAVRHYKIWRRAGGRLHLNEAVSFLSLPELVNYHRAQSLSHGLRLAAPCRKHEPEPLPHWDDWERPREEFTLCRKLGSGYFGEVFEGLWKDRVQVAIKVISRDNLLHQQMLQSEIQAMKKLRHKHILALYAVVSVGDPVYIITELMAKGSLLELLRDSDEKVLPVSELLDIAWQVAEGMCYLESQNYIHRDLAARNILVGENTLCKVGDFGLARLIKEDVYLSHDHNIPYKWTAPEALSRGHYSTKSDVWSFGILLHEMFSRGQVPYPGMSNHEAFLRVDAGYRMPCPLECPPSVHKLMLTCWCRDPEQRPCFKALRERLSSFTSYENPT

[5] = biological target: Mitogen-activated protein kinase 1 (Homo sapiens) (UniProt P28482); conditions: Compound concentration 1.0 uM
Mitogen-activated protein kinase 1 (Homo sapiens), sequence (P28482 whole entry, the tested form may be a part): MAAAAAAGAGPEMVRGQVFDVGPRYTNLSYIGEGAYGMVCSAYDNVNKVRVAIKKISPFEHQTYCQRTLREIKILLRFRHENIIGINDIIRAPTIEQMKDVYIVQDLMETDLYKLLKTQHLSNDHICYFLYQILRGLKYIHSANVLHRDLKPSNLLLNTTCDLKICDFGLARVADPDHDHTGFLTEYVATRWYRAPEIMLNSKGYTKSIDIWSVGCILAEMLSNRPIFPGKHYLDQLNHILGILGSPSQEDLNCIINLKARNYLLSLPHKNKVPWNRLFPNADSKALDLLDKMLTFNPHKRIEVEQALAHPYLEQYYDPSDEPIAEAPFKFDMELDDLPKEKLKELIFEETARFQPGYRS

[6] = biological target: Epithelial discoidin domain-containing receptor 1 (Homo sapiens) (UniProt Q08345); conditions: Compound concentration 1.0 uM
Epithelial discoidin domain-containing receptor 1 (Homo sapiens), sequence (Q08345 whole entry, the tested form may be a part): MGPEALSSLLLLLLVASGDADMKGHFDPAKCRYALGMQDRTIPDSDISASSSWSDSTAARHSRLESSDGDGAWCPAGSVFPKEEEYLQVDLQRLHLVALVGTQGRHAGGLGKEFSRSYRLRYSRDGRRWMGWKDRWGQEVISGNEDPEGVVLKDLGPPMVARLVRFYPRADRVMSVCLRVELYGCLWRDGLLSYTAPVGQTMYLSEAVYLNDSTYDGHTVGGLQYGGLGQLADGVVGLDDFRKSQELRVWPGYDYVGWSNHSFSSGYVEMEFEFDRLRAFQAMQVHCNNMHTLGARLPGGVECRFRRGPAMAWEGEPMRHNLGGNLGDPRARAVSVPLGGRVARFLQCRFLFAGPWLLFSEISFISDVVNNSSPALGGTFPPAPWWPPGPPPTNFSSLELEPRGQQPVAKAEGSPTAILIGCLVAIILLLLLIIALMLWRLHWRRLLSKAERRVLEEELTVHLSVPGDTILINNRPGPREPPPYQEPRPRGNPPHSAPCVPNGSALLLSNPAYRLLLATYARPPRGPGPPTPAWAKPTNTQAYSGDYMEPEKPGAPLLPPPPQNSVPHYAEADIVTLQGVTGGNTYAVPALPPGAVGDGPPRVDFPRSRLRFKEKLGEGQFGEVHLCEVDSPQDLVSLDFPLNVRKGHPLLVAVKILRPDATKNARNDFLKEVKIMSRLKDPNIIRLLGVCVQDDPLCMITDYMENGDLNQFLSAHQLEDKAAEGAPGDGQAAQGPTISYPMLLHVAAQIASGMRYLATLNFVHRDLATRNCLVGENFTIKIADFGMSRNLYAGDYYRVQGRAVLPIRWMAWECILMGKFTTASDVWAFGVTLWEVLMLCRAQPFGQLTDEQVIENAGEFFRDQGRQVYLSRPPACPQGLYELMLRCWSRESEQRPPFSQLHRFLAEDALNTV

[7] = biological target: T1, Muscle, skeletal receptor tyrosine-protein kinase (Homo sapiens) (UniProt O15146); conditions: Compound concentration 1.0 uM
T1 sequence (whole entry): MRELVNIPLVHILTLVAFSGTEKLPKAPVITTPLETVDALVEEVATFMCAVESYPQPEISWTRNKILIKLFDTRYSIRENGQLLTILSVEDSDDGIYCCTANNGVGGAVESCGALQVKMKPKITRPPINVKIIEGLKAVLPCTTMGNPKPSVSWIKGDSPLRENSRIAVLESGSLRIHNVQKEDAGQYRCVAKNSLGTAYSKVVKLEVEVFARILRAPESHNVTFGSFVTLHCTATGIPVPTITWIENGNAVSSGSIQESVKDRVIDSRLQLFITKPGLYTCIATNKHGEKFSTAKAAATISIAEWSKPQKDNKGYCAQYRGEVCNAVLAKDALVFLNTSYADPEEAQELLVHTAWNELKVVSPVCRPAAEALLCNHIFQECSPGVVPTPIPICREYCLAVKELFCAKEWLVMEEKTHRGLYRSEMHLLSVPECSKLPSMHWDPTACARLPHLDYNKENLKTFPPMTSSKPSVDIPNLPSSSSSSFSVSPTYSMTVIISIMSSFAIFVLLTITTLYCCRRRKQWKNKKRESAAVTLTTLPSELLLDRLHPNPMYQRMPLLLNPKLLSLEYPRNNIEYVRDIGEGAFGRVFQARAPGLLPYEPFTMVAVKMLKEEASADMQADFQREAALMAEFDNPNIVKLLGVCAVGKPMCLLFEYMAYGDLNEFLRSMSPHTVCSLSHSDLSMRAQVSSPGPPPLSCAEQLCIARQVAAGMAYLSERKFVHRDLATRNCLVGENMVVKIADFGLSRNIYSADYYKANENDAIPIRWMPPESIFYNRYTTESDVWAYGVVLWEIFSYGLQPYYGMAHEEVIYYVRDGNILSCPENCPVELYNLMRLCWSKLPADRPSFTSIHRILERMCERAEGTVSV

[8] = biological target: Serine/threonine-protein kinase N1 (Homo sapiens) (UniProt Q16512); conditions: Compound concentration 1.0 uM
Serine/threonine-protein kinase N1 (Homo sapiens), sequence (Q16512 2-942 limits assumed): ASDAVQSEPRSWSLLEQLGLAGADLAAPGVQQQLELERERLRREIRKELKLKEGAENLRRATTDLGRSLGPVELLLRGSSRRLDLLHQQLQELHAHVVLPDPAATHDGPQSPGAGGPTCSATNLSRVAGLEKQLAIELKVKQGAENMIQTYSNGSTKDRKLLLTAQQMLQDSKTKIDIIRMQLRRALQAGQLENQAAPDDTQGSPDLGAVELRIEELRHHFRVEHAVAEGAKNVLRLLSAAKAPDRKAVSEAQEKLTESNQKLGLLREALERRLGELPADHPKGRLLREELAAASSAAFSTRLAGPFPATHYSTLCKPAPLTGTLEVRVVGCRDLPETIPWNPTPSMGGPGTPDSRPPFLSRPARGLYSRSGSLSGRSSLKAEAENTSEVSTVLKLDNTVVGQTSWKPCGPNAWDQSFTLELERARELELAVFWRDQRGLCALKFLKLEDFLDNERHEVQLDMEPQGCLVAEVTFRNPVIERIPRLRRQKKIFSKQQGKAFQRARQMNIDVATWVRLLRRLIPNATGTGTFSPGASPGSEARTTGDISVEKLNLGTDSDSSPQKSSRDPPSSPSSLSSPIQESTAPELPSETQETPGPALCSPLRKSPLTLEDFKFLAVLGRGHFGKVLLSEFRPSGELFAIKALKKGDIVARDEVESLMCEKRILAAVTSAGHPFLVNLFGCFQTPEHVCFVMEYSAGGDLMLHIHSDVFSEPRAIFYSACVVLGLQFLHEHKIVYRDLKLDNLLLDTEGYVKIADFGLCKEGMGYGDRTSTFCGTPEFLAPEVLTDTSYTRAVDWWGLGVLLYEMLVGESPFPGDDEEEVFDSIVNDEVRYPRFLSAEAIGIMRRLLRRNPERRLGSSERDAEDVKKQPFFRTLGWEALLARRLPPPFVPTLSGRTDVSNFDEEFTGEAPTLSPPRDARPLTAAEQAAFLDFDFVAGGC

[9] = biological target: T2, cGMP-dependent protein kinase 2 (Homo sapiens) (UniProt Q13237); conditions: Compound concentration 1.0 uM
T2 sequence (whole entry): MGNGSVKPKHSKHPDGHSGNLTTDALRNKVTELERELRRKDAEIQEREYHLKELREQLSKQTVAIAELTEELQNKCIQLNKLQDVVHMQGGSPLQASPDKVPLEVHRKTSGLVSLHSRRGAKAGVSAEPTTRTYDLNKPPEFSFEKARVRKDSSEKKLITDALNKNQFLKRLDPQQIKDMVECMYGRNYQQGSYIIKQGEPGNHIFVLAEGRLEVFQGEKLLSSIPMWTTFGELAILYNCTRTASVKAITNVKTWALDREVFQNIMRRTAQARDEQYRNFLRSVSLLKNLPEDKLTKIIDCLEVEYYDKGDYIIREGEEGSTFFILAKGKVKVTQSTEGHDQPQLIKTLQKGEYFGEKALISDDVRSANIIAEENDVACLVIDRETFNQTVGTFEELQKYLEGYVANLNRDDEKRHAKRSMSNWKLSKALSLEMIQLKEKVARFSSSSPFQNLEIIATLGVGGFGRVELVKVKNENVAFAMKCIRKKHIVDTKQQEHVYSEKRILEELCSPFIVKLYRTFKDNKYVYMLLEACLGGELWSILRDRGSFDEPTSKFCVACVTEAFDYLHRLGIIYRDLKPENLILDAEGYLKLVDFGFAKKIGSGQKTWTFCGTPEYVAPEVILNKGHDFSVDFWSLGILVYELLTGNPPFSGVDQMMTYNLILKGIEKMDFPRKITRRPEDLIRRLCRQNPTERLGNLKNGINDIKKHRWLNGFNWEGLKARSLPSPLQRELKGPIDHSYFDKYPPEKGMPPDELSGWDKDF

[10] = biological target: MAP kinase-activated protein kinase 3 (Homo sapiens) (UniProt Q16644); conditions: Compound concentration 1.0 uM
MAP kinase-activated protein kinase 3 (Homo sapiens), sequence (Q16644 whole entry, looked up): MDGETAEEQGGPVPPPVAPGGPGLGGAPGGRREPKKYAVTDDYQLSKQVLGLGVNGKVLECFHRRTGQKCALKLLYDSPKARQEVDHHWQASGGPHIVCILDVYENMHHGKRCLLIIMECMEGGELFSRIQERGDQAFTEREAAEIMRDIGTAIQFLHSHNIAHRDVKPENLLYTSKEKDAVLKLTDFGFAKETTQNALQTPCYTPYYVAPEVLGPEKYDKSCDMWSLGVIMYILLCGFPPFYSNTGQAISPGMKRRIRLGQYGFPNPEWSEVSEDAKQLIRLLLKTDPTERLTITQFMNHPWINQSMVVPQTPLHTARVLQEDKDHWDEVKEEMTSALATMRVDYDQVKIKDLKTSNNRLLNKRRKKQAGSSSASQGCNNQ

[11] = biological target: 5-hydroxytryptamine receptor 2C (Homo sapiens) (UniProt P28335); conditions: Compound concentration 10.0 uM
5-hydroxytryptamine receptor 2C (Homo sapiens), sequence (P28335 whole entry): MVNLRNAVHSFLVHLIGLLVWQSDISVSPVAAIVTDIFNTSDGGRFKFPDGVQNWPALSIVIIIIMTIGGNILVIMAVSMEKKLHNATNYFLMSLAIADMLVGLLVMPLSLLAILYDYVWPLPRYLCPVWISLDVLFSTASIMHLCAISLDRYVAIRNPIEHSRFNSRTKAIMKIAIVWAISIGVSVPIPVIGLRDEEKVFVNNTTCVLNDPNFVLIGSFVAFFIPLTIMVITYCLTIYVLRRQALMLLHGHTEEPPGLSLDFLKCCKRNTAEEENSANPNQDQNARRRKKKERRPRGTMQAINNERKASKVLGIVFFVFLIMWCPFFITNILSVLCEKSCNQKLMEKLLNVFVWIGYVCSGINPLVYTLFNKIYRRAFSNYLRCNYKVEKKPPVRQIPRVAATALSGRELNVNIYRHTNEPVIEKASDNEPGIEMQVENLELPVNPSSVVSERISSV

[12] = biological target: T3, Serine/threonine-protein kinase DCLK3 (Homo sapiens) (UniProt Q9C098); conditions: Compound concentration 1.0 uM
T3 sequence (whole entry): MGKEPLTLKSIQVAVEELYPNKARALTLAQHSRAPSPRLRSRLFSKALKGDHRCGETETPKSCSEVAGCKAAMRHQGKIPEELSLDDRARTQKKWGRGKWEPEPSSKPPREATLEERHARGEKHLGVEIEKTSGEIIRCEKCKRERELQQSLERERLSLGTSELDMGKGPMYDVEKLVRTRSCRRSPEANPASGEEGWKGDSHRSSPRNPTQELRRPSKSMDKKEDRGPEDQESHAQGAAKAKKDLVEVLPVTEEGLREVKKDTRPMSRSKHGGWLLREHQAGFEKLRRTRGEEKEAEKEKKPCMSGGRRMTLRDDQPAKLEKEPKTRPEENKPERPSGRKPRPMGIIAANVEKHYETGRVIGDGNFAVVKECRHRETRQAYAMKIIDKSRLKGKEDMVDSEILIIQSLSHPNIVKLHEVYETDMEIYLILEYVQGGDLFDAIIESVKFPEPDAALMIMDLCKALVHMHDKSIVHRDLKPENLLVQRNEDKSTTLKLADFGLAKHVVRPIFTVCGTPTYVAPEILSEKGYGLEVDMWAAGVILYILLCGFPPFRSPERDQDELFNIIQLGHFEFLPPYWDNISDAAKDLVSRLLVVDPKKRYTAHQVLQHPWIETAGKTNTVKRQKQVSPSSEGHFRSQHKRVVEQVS

[13] = biological target: CDK9/cyclin T1 (Homo sapiens) (UniProt O60563+P50750); conditions: Compound concentration 1.0 uM

Casein kinase II subunit alpha' (Homo sapiens), sequence (P19784 whole entry, looked up): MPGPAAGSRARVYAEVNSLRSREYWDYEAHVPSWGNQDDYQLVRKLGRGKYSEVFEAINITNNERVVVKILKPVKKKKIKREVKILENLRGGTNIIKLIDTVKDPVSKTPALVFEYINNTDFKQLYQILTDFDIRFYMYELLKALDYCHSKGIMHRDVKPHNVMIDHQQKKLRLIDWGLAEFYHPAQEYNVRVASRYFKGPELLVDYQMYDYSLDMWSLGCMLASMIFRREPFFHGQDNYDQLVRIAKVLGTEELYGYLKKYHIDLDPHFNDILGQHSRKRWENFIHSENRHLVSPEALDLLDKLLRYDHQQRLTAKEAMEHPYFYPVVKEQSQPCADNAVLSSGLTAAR
Tyrosine-protein kinase BTK (Homo sapiens), sequence (Q06187 whole entry): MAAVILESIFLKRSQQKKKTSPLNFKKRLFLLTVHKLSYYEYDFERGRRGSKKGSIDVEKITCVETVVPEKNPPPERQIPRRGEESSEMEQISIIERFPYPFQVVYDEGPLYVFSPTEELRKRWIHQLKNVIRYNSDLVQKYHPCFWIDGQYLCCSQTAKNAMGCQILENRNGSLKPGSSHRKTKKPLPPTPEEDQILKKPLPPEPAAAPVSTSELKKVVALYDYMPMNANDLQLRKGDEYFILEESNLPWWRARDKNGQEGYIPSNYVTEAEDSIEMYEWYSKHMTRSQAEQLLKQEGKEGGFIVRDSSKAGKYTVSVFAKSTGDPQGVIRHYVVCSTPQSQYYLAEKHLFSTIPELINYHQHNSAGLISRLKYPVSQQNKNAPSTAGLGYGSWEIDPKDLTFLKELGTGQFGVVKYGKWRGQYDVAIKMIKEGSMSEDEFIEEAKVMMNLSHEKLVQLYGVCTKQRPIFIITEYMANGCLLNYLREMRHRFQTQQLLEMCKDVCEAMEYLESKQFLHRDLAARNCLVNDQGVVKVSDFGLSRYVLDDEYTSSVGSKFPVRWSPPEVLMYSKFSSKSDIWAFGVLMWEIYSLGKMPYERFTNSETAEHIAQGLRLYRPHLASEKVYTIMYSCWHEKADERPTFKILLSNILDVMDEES
Alpha-2B adrenergic receptor (Homo sapiens), sequence (P18089 whole entry): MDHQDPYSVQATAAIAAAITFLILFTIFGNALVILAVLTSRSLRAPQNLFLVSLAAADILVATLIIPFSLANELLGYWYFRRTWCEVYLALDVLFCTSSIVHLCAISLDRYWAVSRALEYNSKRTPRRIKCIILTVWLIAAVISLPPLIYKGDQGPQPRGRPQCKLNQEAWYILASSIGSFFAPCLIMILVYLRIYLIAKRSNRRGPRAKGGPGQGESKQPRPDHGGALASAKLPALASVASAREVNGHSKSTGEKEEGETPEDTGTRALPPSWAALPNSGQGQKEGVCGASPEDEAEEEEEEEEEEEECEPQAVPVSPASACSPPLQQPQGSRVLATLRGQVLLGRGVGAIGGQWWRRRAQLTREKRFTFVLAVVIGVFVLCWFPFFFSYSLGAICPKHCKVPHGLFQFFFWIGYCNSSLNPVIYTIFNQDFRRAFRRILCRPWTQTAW

CN1CCN(c2cnc3c(C4CCN(C(=O)c5ccc(OC(F)(F)F)cc5N)CC4)ncnc3c2)CC1 [BAY-885]
inactive: % residual kinase activity [1] 98% | inhibition [2] -8.47% | % residual kinase activity [3] 94% | % residual kinase activity [4] 108% | % residual kinase activity [5] 107% | % residual kinase activity [6] 100% | % residual kinase activity [7] 130% | % residual kinase activity [8] 114% | % residual kinase activity [9] 127% | % residual kinase activity [10] 113% | inhibition [11] -4.77% | % residual kinase activity [12] 92% | % residual kinase activity [13] 103%
